From ChEMBL document CHEMBL1201862, “PubChem BioAssay data set” (2004)
Calls of active or inactive are those of the source.

How the values were obtained:
[1] = tested on: HeLa; test: Cytotoxicity counterscreen assay for transcriptional activators of heat shock protein 70 (Hsp70). [Related pubchem assays: 1203, 1252 ]; format: functional; conditions: Homo sapiens;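 note: cells exposed to compound for 16 hours before readout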
[2] = molecular target: Beta Lactamase (Pseudomonas aeruginosa, UniProt Q932Y6); test: BLA reporter interference, concentration series – BLA reporter cells, FRET fluorescence, artefact control for TLR9-MyD88 binding inhibitor project, dose response (AID 588341); format: cell-based;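 note: cell based assay in CHO-K1 cells stably expressing beta-lactamase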
Sequence of Beta Lactamase (Q932Y6 whole entry): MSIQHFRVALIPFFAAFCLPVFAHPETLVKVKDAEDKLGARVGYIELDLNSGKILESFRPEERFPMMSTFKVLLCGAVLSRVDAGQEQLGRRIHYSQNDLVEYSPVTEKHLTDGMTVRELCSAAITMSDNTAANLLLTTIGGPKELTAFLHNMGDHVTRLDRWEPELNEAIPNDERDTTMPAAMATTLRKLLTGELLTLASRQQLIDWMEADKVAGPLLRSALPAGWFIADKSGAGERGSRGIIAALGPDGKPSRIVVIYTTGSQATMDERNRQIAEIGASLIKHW

[3] = non-specific 3'UTR reporter inhibition in Clone20-Shn3RL – cell-based, Renilla luciferase, cherry-picked, counter-screen for Shn3 inhibitor project, dose response (AID 624133); format: functional
[4] = molecular target: Photoreceptor-specific nuclear receptor (Homo sapiens, UniProt Q9Y5X4); format: functional, cell-based;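 note: CHO-S cells with Gal4-NCOR and VP16-NR2E3 two-hybrid luciferase reporter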
Sequence of Photoreceptor-specific nuclear receptor (Q9Y5X4 whole entry, the tested form may be a part): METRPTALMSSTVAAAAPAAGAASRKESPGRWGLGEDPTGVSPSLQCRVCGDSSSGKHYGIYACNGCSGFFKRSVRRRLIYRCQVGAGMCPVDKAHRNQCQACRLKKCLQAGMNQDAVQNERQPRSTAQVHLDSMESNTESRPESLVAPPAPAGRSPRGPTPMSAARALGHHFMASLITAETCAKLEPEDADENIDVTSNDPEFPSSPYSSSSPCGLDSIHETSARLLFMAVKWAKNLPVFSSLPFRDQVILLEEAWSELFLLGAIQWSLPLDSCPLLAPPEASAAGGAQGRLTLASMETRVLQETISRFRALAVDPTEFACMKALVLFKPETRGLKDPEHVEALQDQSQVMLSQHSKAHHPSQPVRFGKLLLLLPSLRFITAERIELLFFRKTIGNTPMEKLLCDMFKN

[5] = HEK-293T viability loss after treatment – luminescence, T-cell screen hits, cytotoxicity control for TCR NF-kB inhibitor project, dose response (AID 489026); format: functional, cell-based;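 note: cells exposed to compound about 14 hours before the viability readout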
[6] = molecular target: Beta-galactosidase (Escherichia coli, UniProt Q8VNN2); format: functional
Sequence of Beta-galactosidase (Q8VNN2 whole entry): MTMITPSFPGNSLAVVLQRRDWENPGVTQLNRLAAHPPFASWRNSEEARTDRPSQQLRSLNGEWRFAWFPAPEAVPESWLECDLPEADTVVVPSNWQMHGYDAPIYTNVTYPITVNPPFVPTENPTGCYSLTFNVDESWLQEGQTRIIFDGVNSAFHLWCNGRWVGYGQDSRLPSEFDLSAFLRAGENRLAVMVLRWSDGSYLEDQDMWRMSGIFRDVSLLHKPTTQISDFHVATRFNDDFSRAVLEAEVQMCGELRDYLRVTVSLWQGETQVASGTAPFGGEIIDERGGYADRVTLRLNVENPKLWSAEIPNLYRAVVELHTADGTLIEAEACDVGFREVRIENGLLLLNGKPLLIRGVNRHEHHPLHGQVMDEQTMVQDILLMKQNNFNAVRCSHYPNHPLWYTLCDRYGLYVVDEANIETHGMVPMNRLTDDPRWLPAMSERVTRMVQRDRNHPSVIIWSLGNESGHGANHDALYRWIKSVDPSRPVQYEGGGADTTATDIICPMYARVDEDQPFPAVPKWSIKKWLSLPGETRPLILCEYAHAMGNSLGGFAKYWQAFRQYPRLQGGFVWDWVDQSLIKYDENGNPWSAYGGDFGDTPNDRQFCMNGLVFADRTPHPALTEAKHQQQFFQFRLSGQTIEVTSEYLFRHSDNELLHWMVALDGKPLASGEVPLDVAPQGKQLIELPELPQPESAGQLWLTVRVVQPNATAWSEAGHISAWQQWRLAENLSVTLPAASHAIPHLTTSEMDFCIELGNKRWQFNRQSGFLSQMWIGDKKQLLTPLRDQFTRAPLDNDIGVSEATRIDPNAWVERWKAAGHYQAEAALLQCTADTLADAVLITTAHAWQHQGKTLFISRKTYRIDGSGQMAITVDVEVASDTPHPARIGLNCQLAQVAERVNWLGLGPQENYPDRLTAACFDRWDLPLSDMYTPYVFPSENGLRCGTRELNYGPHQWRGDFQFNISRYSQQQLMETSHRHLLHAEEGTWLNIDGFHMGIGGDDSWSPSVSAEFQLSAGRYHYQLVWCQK

[7] = alpha-synuclein stem-loop luciferase translation blockers – H4 neuroglioma cells, luminescence, confirmation (AID 1988); format: functional, cell-based
[8] = molecular target: T1, Tyrosyl-DNA phosphodiesterase 2 (Homo sapiens, UniProt O95551); test: potency against TDP2 phosphodiesterase activity – biochemical, epi absorbance, IC50, dose response (AID 743297)
T1 sequence (O95551 whole entry): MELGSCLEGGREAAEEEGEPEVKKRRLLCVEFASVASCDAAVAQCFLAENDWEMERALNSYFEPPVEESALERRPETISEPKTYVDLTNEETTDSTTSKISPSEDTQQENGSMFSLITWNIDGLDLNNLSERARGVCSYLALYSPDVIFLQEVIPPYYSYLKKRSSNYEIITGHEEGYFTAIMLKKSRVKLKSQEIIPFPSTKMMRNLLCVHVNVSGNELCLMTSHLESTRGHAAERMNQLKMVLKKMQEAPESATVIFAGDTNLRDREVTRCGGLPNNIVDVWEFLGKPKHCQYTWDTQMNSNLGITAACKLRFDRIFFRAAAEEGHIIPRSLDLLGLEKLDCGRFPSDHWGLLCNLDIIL

[9] = molecular target: T2, Sentrin-specific protease 7 (Homo sapiens, UniProt Q9BQF6); format: functional;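 note: Luminescence-based dose-response confirmation of ultra-high-throughput screening hits, measuring inhibition of SENP7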
T2 sequence (Q9BQF6 whole entry): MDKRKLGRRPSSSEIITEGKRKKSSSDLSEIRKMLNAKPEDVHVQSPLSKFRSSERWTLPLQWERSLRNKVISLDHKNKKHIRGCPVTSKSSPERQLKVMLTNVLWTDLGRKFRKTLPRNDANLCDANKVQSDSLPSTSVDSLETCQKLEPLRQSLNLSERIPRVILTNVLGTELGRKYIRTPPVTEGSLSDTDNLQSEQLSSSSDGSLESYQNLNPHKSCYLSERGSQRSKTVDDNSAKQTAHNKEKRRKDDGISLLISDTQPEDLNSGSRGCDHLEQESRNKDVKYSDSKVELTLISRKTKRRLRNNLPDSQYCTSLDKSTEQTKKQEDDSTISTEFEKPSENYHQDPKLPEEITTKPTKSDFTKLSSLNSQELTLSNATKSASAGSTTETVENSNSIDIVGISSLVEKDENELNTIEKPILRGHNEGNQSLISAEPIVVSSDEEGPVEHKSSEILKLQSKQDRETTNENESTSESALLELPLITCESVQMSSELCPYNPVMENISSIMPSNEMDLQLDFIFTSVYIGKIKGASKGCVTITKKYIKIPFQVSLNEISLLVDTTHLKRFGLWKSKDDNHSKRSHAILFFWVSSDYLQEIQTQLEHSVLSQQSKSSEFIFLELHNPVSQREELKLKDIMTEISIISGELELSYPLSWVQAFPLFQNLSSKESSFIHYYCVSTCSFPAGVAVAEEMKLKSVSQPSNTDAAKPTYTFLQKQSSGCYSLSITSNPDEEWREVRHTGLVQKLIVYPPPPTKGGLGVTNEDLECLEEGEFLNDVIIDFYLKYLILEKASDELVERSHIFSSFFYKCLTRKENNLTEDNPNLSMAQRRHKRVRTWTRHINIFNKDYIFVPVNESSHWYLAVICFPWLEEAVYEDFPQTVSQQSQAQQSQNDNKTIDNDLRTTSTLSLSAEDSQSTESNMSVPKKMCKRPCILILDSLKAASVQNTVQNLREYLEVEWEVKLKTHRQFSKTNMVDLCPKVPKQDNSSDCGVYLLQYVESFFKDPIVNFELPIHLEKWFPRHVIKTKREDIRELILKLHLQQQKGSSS

[10] = molecular target: T3, Caspase-3 (Homo sapiens, UniProt P42574); format: functional;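 note: Dose-response selectivity test against caspase-3 for candidate inhibitors of sentrin-specific proteases (SENPs)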
T3 sequence (P42574 whole entry): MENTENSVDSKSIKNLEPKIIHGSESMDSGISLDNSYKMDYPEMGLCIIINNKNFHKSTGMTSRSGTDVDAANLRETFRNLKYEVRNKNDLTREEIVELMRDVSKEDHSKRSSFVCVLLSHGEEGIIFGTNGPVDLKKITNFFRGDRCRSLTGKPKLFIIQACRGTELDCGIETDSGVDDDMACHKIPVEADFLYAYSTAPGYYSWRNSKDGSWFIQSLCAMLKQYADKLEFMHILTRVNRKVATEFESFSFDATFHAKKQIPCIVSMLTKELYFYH

[11] = molecular target: T4, Sentrin-specific protease 8 (Homo sapiens, UniProt Q96LD8); format: functional
T4 sequence (Q96LD8 whole entry): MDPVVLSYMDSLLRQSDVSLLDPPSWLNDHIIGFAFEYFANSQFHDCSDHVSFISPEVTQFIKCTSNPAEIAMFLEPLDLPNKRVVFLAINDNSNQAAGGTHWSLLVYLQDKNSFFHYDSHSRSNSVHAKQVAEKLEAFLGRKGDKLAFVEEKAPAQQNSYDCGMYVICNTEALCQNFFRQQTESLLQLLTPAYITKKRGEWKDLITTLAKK

[12] = molecular target: T4, Sentrin-specific protease 8; format: functional; remark: listed apart in the source
[13] = molecular target: T4, Sentrin-specific protease 8; format: functional; remark: listed apart in the source
[14] = molecular target: Genome polyprotein (dengue virus type 2, UniProt P29990); test: flavivirus cap methylation enzyme inhibition – biochemical, confirmation dose response, primary screen (AID 588689); format: functional
Sequence of Genome polyprotein (P29990 2492-3391 limits assumed): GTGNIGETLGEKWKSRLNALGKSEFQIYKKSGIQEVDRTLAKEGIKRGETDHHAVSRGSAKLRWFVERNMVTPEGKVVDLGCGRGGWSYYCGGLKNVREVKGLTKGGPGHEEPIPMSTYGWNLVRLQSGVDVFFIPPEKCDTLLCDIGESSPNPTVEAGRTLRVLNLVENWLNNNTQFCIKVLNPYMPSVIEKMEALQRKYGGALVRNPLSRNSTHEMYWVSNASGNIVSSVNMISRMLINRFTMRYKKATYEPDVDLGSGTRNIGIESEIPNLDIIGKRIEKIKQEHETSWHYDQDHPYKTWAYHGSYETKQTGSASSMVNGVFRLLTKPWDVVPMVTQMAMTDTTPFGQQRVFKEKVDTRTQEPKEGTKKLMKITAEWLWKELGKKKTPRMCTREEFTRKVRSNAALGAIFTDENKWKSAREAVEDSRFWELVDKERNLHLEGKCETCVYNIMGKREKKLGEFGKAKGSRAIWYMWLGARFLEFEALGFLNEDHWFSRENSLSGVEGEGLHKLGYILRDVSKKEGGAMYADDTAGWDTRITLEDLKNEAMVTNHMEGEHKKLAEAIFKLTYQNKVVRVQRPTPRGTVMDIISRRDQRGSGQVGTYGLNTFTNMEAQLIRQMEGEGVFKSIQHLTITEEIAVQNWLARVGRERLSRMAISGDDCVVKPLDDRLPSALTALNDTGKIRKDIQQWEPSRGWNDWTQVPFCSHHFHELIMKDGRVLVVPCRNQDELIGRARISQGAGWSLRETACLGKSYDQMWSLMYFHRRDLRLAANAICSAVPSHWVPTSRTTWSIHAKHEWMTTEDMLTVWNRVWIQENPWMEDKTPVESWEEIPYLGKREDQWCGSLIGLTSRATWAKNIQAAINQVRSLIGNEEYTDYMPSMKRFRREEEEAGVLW

[15] = molecular target: T5, RNA-binding protein pos-1 (Caenorhabditis elegans, UniProt G5EF15); test: disruptors of C. elegans POS-1 RNA interaction – biochemical, fluorescence polarization, dose response (AID 1964);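 note: purified POS-1 fused to maltose binding protein made in E. coli; potency of compounds blocking POS-1 binding to fluorescent RNA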
T5 sequence (G5EF15 whole entry): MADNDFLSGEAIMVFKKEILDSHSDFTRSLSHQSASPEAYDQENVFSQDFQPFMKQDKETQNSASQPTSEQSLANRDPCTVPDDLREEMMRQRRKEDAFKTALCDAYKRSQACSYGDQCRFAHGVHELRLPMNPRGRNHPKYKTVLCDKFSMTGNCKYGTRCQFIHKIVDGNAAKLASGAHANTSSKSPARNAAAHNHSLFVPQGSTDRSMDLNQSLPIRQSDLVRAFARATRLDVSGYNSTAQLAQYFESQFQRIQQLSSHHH

[16] = molecular target: Serine/threonine-protein phosphatase (Homo sapiens, UniProt Q9BPW0); test: inhibition of protein phosphatase 5 activity – biochemical, fluorescence, dose response (AID 2395)
Sequence of Serine/threonine-protein phosphatase (Q9BPW0 whole entry): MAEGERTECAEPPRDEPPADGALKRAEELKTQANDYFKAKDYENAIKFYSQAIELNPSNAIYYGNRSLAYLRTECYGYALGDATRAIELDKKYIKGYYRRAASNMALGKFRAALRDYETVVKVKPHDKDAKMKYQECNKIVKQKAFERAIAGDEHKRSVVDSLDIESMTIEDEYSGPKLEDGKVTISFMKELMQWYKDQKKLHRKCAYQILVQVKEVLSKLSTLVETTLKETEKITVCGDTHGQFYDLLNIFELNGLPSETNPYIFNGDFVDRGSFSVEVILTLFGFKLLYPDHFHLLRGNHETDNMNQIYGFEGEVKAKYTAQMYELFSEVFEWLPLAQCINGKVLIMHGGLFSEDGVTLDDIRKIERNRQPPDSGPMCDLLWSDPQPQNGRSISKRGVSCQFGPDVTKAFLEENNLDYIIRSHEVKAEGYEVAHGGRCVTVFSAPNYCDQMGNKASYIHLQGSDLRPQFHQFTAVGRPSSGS

Structure (SMILES)	CC50 [1]	IC50 [2]	AC50 [3]	IC50 [4]	IC50 [5]	EC50 [6]	EC50 [7]	IC50 [8]	IC50 [9]	IC50 [10]	IC50 [11]	IC50 [12]	IC50 [13]	IC50 [14]	EC50 [15]	IC50 [16]
COc1ccc(NC(=O)/C(Cl)=C(/Cl)[S+]([O-])Cc2ccccc2)cn1 (stereo not given)	1.75 µM (active)	16 µM (inactive)	< 0.26 µM (active)	0.92 µM (active)	33 µM (inactive)	> 31.5 µM (inactive)	4.57 µM (active)									
Nc1ccc(N2CCCCC2)c2nonc12								79.7 µM (inactive)	17.1 µM (active)	36.9 µM (active)	10.2 µM (active)	1.06 µM (active)	3.28 µM (active)	40.6 µM (active)		
Cc1ccc(S(=O)(=O)/N=C2\C=C(Nc3cccc(C(=O)O)c3)C(=O)c3ccccc32)c(C)c1								2.58 µM (active)	3.3 µM (active)	11.2 µM (active)	1.78 µM (active)				68.6 µM (active)	12.3 µM (not active)
